Laboratory results from paper PMC5384650 (Molecular microbiology, 2016).
pKi: −log10 of the molar value.

Target: T1, threonine dehydratase (IlvA) (Salmonella enterica, UniProt P20506)
T1 sequence (P20506 1-514): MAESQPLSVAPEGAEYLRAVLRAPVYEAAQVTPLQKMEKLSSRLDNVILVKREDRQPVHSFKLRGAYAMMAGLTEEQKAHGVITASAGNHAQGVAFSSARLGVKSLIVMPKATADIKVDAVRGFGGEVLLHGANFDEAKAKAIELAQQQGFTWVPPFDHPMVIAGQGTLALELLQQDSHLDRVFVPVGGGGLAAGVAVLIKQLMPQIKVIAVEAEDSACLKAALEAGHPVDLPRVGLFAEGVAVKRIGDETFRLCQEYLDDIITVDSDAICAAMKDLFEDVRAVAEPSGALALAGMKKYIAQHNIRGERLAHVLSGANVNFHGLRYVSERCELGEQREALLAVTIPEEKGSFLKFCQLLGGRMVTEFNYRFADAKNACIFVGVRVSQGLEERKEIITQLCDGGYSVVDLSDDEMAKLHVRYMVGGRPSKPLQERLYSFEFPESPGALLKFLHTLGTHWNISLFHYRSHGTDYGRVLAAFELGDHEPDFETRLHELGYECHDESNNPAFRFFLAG
Format: biochemical

## NC[C@H](N)C(=O)O [Dap, L-2,3-diaminopropionate]
  pKi: 2.77
